Experimental data published in publication PMC4704819, “Honey Bee Allatostatins Target Galanin/Somatostatin-Like Receptors and Modulate Learning: A Conserved Function?” (PLoS ONE, 2016).
“Also recorded” adds a separate entry of the source. Where a SMILES comes first, the peptide text is derived from it. Bridges are numbered along the chain shown (N, C = ends).

System: mock-transfected HEK293 cells
Assay: Intracellular cAMP reporter assay, mock-transfected HEK293 cells (empty vector)
Assay type: cell-based, human
Details: CRE-luciferase, IBMX, ASTCC Fig 5F, ASTA and ASTC data not shown
Experimental: For intracellular cAMP measurements, cells were bathed in trypsin EDTA and collected, then suspended in fresh DMEM. Transfections with pRK5-ApimeAstC-R, pRK5-ApimeAstA-R or empty pRK5 vector were carried out in 15 ml Falcon tubes. Transfection medium for HEK293 cells was prepared using the Lipofectamine LTX kit (Invitrogen) with 2.5 ml Opti-MEM® (Gibco), 12.5 μl Plus™ Reagent and 4 μg of ApimeASTC-R (or ApimeASTA-R, or empty) expression construct, and 2 μg of CRE(6x)-Luc plasmid. The luciferase ORF, downstream of six tandem repeats of a cyclic AMP responsive element (CRE), in front of a minimum collate promoter, was used as a reporter gene (this reporter plasmid has been used by others)
We followed a previousy published protocol: HEK293 cells in Dulbecco's Modified Eagles Medium nutrient mixture F12-Ham (DMEM/F12, Sigma–Aldrich) supplemented with 10% heat-inactivated fetal bovine serum (Gibco), 100 IU/ml penicillin, 100 μg/ml streptomycin (Gibco) were maintained in an incubator at 37°C with constant supply of 5% CO2, until they reached 60–80% confluence. Cells were then bathed in trypsin EDTA (Gibco) until rounded. The flask was then tapped to loosen the cells, which were subsequently washed off with 5 ml DMEM/F12. The cells were gently centrifuged at 800 rpm for 5 minutes and carefully suspended in fresh DMEM, which was divided in two for transfection with receptor constructs or empty vectors. After 5 min at room temperature, 30 μl LTX was added. After an incubation period of 30 min at room temperature, the DNA/LTX mix was added to the cells. The cells were then aliquoted (100 μl per well) into a clear bottom 96-well plate (Greiner bio-one #655090) and incubated overnight (37°C, 5% CO2).
Prior to measuring cAMP, the cell medium was removed by carefully inverting the 96-well plate on filter paper and quickly replaced with 100 μl of DMEM/F12 without phenol red (Invitrogen), but containing 200 μM 3-isobutyl-1-methylxanthine (IBMX, Sigma–Aldrich) to prevent cAMP breakdown, as well as drugs to be tested. In each experiment, some wells were used to measure basal levels of cAMP in the cells (negative control), while others were used to measure cAMP levels in cells exposed to 10 μM forskolin analogue (NKH-477, Sigma Aldrich, positive control). […] All cells were incubated at 37°C and 5% CO2 for 3–4 h to allow transcription of the reporter gene before 100 μl of freshly reconstituted Steadylite Plus™ substrate (PerkinElmer) was added to each well. The 96-well plate was then placed in the dark for 15 min before light emission resulting from luciferase enzymatic activity was recorded. Measurements lasting 0.2 s/well were taken every 55 s for 10 cycles using a FLUOstar Omega microplate reader (BMG Labtech). Results were analyzed by means of the Omega software packages and further processed by Excel and GraphPad Prism softwares. In order to facilitate comparisons across experiments, bioluminescence levels are expressed relative to those in mock-transfected cells (transfected with the vector devoid of the receptor sequence) untreated with NKH-477, which were arbitrarily set at 100.
To test this prediction, we expressed the two receptors separately in HEK293 cells together with the luciferase reporter gene, downstream of the cAMP response element, CRE, but without exogenous G proteins.

Structure (SMILES) | effect on cAMP levels (bioluminescence) in mock-transfected cells, in words | effect on cAMP levels (bioluminescence) in mock-transfected cells, in words (listed as ASTCC) | effect on cAMP levels (bioluminescence) in mock-transfected cells, in words (listed as ASTC)
CC(C)[C@@H]1NC(=O)[C@H](C)NC(=O)[C@H](CC(N)=O)NC(=O)[C@H](Cc2ccccc2)NC(=O)[C@H](Cc2ccc(O)cc2)NC(=O)[C@@H](NC(=O)[C@H](CCCNC(=N)N)NC(=O)[C@H](Cc2c[nH]c3ccccc23)NC(=O)[C@H](Cc2ccc(O)cc2)NC(=O)[C@@H](NC(=O)[C@H](CCCNC(=N)N)NC(=O)CNC(=O)[C@H](CCCCN)NC(=O)[C@H](C)NC(=O)[C@H](CCC(N)=O)NC(=O)CN)C(C)C)CSSC[C@@H](C(=O)N[C@@H](Cc2ccccc2)C(=O)O)NC(=O)[C@H]([C@@H](C)O)NC1=O [Apime-ASTCC] (H-GQAKGRVYWRCYFNAVTCF-OH; disulfide 11-18; N-terminus assumed) | dose-dependent response; also recorded: a similar response to this peptide was apparent also in mock-transfected cells | this occurred also in mock-transfected cells | 
CC(C)[C@@H]1NC(=O)[C@H](C)NC(=O)[C@H](CC(N)=O)NC(=O)[C@H](Cc2ccccc2)NC(=O)[C@H](C)NC(=O)[C@@H](NC(=O)[C@H](CCC(N)=O)NC(=O)[C@H](CCCCN)NC(=O)[C@H](Cc2c[nH]c3ccccc23)NC(=O)[C@H](Cc2ccc(O)cc2)NC(=O)[C@@H](N)CO)CSSC[C@@H](C(=O)N[C@@H](Cc2ccccc2)C(N)=O)NC(=O)[C@H](CO)NC1=O [Apime-ASTC] (H-SYWKQCAFNAVSCF-NH2; disulfide 6-13; N-terminus assumed) | No effect |  | failed to increase intracellular cAMP levels
